Key:
WM3211 melanoma cells = experiment: Cell viability assay (EZQuant), WM3211; assay type: cell-based; details: Homo sapiens; AP alone, 72 h, WM3211, BRAF WT
Protocol: (§1) Cell proliferation assays were conducted in 96-well plates at 25-30% starting confluence to determine the effect of exposure to increasing concentrations of PLX4720 or AP with or without 1 mM DFMO for 72 hours. Cell viability was assessed using the EZQuant™ Cell Quantifying Kit (Alstem) in which WST-8 is reduced by the metabolic activity of live cells to formazan dye. […] The 72 hour IC50 values for AP were calculated using non-linear regression (sigmoidal dose response) of the plot of percentage inhibition versus the log of inhibitor concentration in GraphPad Prism (v5; GraphPad Software, Inc., La Jolla, Calif.).

B16F10-pBABE cells = experiment: Cell viability assay, B16F10-pBABE; details: Mus musculus, read-out: IC50 (cytotoxicity)
Protocol: Cell proliferation assays were conducted in 96-well plates at 25-30% starting confluence to determine the effect of exposure to increasing concentrations of PLX4720 or AP with or without 1 mM DFMO for 72 hours. Cell viability was assessed using the EZQuant™ Cell Quantifying Kit (Alstem) in which WST-8 is reduced by the metabolic activity of live cells to formazan dye. For spheroids treated with PLX4720 and/or AP, viability of the spheroid cells was estimated by quantification of the ATP present using a CellTiter-Glo Luminescent Cell Viability Assay (Promega Co., Madison, Wis.). The 72 hour IC50 values for AP were calculated using non-linear regression (sigmoidal dose response) of the plot of percentage inhibition versus the log of inhibitor concentration in GraphPad Prism (v5; GraphPad Software, Inc., La Jolla, Calif.).

WM88 melanoma cells = experiment: Cell viability assay (EZQuant), WM88; assay type: cell-based; details: Homo sapiens; AP alone, 72 h, WM88, BRAF V600E
Protocol: as §1

1205Lu melanoma cells = experiment: Cell viability assay (EZQuant), 1205Lu; assay type: cell-based; details: Homo sapiens, AP alone, 72 h, BRAF V600E
Protocol: as §1

WM3734 melanoma cells = experiment: Cell viability assay (EZQuant), WM3734; assay type: cell-based; details: Homo sapiens; AP alone, 72 h, WM3734, BRAF V600E
Protocol: as §1

[1] = tested on: BRAF^V600E YUMM1.7 melanoma cells; experiment: Cell viability assay (EZQuant), YUMM1.7; assay type: cell-based, murine; details: FIGS. 9A, 9B, 72 h
Protocol: FIG. 9A: Murine BRAF^V600E YUMM1.7 melanoma cells and BRAF^WT B16F10 melanoma cells were treated with increasing doses of AP. After 72 hours of culture, cell survival was determined via EZQuant™ Cell Quantifying assay. IC50 values were calculated by GraphPad Prism 6. FIG. 9B: Murine BRAF^V600E YUMM1.7 melanoma cells and BRAF^WT B16F10 melanoma cells were treated with increasing doses of AP±1 mM DFMO or with PLX4720. After 72 hours of culture, cell survival was determined via EZQuant™ Cell Quantifying assay. IC50 values were calculated by GraphPad Prism 6. […] Cells were washed with cold PBS containing 50 μM spermidine, and cell lysates were assayed for CPM ^3H-spermidine per mg protein by scintillation counting.

WM3451 melanoma cells = experiment: Cell viability assay (EZQuant), WM3451; assay type: cell-based; details: Homo sapiens; AP alone, 72 h, WM3451, BRAF WT
Protocol: as §1

B16F10 melanoma tumors = experiment: B16F10 melanoma tumor model (Example 3); assay type: in vivo, C57Bl/6 mice
Protocol: C57Bl/6 mice were injected s.c. with 1.5×10^5 B16F10 melanoma cells. B16F10 melanoma cells are a poorly immunogenic, highly metastatic, and highly aggressive cancer cell line. When tumors were 40-80 mm^3 in size, AP (Formula (II)) treatment (i.p., 2 mg/kg every other day) was initiated. Some mice were also administered 0.25% DFMO (w/v) in the drinking water. Tumors were measured with calipers to determine tumor volume over 14 days of treatment (FIG. 12A). Splenocytes from mice treated with vehicle, DFMO, AP, or AP+DFMO were analyzed by flow cytometry for F4/80+CD206^+ M2 macrophages (FIG. 12B). Splenocytes were treated for 4 hours at 37° C. with ionomycin (500 ng/ml) and PMA (50 ng/ml) to stimulate T cells to produce IFNγ in the presence of Brefeldin A to block cytokine secretion. Cells were stained with anti-CD4 antibody in the presence of Brefeldin A, fixed, permeabilized and intracellularly stained with an anti-IFNγ antibody and analyzed by flow cytometry (FIG. 12C).

[2] = tested on: BRAF^V600E melanoma cells; experiment: Cell viability, panel of BRAF V600E human melanoma cell lines; assay type: cell-based; details: summary of Table 1, BRAF V600E lines, read-out: IC50 (sensitivity to AP)
Excerpt: A panel of human melanoma cell lines with different BRAF mutational status were screened for their sensitivity to the BRAF inhibitor PLX4720. […] The IC50 value is defined as the concentration of the compound (PLX4720) required to inhibit 50% cell viability compared to an untreated control. This approach allowed for the ranking of the relative sensitivity of each cell line to the PLX4720 BRAF inhibitor. Thus, the sensitivity of these BRAF^V600E melanoma cells to BRAF inhibition with PLX4720 reflected their functional dependence on mutant BRAF signaling to sustain their proliferation and viability. Likewise, it was tested whether BRAF^V600E cells were more sensitive compared to BRAF^WT melanoma cells to increasing concentrations of the cytotoxic polyamine transport ligand, AP.

In the case of `CNCNCNCc1ccc(CNCNCNC)c2ccccc12` [AP], the IC50 (WM3211 melanoma cells) is reported as 4.5 µM, the IC50 (B16F10-pBABE cells) is reported as 36400 nM and the IC50 (WM88 melanoma cells) is reported as 0.8 µM. For the same compound, the IC50 (1205Lu melanoma cells) was 0.7 µM, the IC50 (WM3734 melanoma cells) was 2.2 µM and the “sensitivity to AP (IC50 compared to BRAF WT B16F10 cells)” value [1] was “significantly more sensitive”. The IC50 (WM3451 melanoma cells) was 9 µM, the tumor growth (B16F10 melanoma tumors; FIG. 12A, AP alone, i.p. 2 mg/kg every other day, 14 days) was “inhibits tumor growth” and the “CD206+ F4/80+ macrophages (splenocytes)” value (B16F10 melanoma tumors; FIG. 12B, AP alone) was “dramatically decreases”. The “IFN-gamma-secreting T cells” value (B16F10 melanoma tumors; FIG. 12C, splenocytes stimulated with ionomycin and PMA) was “increasing” and the IC50 [2] was < 2500 nM.
